# Laboratory results from ChEMBL document CHEMBL5724696, “Autophagy assay results for EUbOPEN Chemogenomics Library” (2024).
# Assays:
# Format in all cases: functional, Homo sapiens
# U2OS [1] = experiment: (§1) Here: values are normalized to the negative (DMSO; defined as 0% autophagy induction) and positive (250nM Torin1; mTOR inhibitor; defined as maximal inducer of autophagy = 100%) control compounds and represented as % of autophagy induction. […] The impact of autophagy induction on cells is complex and depends on the affected target. As such, the magnitude of a phenotype may not be equally mirrored in the %-value of autophagy induction and vice versa. The dynamics of the induction may indicate the mode of activation: e.g. activation via phosphorylation or a signaling cascade may occur fast, while activation via transcription factors may take considerably longer. […] Of note, treatment concentrations may be sub-optimal for specific compounds, leading to false negative annotations.; details: Culturing Media DMEM, 1 % Penicillin/Streptomycin, 10% Fetal bovin serum Add-On: No, Screening Media Control DMEM, Screening Media Samples DMEM
# U2OS [2] = experiment: as §1; details: Culturing Media DMEM, 1 % Penicillin/Streptomycin, 10% Fetal bovin serum Add-On: No, Screening Media Control DMEM, Screening Media Samples DMEM; remark: listed apart in the source
# TERT-RPE1 = experiment: as §1; details: Culturing Media DMEM/F12 (1:1), 1 % Penicillin/Streptomycin, 10% Fetal bovin serum Add-On: No, Screening Media Control DMEM/F12 (1:1), Screening Media Samples DMEM/F12 (1:1)
# [3] = Compound Concentration 0.5 uM, Timepoint 12 hours
# [4] = Compound Concentration 0.5 uM, Timepoint 24 hours
# [5] = Compound Concentration 0.5 uM, Timepoint 36 hours
# [6] = Compound Concentration 0.5 uM, Timepoint 60 hours
# [7] = Compound Concentration 2 uM, Timepoint 12 hours
# [8] = Compound Concentration 2 uM, Timepoint 24 hours
# [9] = Compound Concentration 2 uM, Timepoint 36 hours
# [10] = Compound Concentration 2 uM, Timepoint 60 hours
# [11] = Compound Concentration 10 uM, Timepoint 12 hours
# [12] = Compound Concentration 10 uM, Timepoint 24 hours
# [13] = Compound Concentration 10 uM, Timepoint 36 hours
# [14] = Compound Concentration 10 uM, Timepoint 60 hours
smiles,measurement,setting,value
CCCCN(CCCC)C(=O)CN1C[C@@H](c2ccc3c(c2)OCO3)[C@H](C(=O)O)[C@H]1c1ccc(OC)cc1,autophagy induction,U2OS [1]; [3],-15.0632%
same,autophagy induction,U2OS [1]; [4],-6.645%
same,autophagy induction,U2OS [1]; [5],-7.125%
same,autophagy induction,U2OS [1]; [6],-16.2807%
same,autophagy induction,U2OS [1]; [7],-9.31%
same,autophagy induction,U2OS [1]; [8],-9.369%
same,autophagy induction,U2OS [1]; [9],-11.2096%
same,autophagy induction,U2OS [1]; [10],-4.989%
same,autophagy induction,U2OS [1]; [11],9.199%
same,autophagy induction,U2OS [1]; [12],8.705%
same,autophagy induction,U2OS [1]; [13],6.119%
same,autophagy induction,U2OS [1]; [14],4.931%
same,autophagy induction,U2OS [2]; [3],-1.434%
same,autophagy induction,U2OS [2]; [4],-1.039%
same,autophagy induction,U2OS [2]; [5],-0.6288%
same,autophagy induction,U2OS [2]; [6],-0.1138%
same,autophagy induction,U2OS [2]; [7],-9.274%
same,autophagy induction,U2OS [2]; [8],-4.861%
same,autophagy induction,U2OS [2]; [9],-2.29%
same,autophagy induction,U2OS [2]; [10],-1.949%
same,autophagy induction,U2OS [2]; [11],6.695%
same,autophagy induction,U2OS [2]; [12],2.81%
same,autophagy induction,U2OS [2]; [13],1.829%
same,autophagy induction,U2OS [2]; [14],-0.9275%
same,autophagy induction,TERT-RPE1; [3],-5.689%
same,autophagy induction,TERT-RPE1; [4],-7.876%
same,autophagy induction,TERT-RPE1; [5],-10.2076%
same,autophagy induction,TERT-RPE1; [6],-16.9579%
same,autophagy induction,TERT-RPE1; [7],-2.05%
same,autophagy induction,TERT-RPE1; [8],-6.33%
same,autophagy induction,TERT-RPE1; [9],-9.375%
same,autophagy induction,TERT-RPE1; [10],-15.3533%
same,autophagy induction,TERT-RPE1; [11],0.4134%
same,autophagy induction,TERT-RPE1; [12],0.2558%
same,autophagy induction,TERT-RPE1; [13],-0.8322%
same,autophagy induction,TERT-RPE1; [14],-6.302%
